Measurements from PMC2201222 (The Journal of General Physiology, 1968).

Columns and labels:
[1] = Activity toward Na+-K+ transport across sheep red cell and thin lipid membranes; conditions: for selectivity for K+ over Na+ (section heading of Table II): sheep red cells and thin lipid membranes
[2] = Electrical resistance and potential of thin lipid; set-up: species or system sheep; conditions: about 22C, unbuffered pH 5.6
[3] = format: physicochemical; conditions: read-out by bilayer resistance
[4] = general statement, no method or reference given; cited from earlier work

CO[C@@H]1C[C@@H](C[C@H]2CC[C@H](C)[C@H]([C@@H](C)C(=O)O)O2)O[C@]2(O[C@](C)([C@H]3CC[C@@](C)([C@@H]4O[C@@H]([C@H]5O[C@@](O)(CO)[C@H](C)C[C@@H]5C)C[C@@H]4C)O3)C[C@H]2C)[C@@H]1C [Nigericin]
selectivity for K+ over Na+ (section heading of Table II) [1]: moderate to low selectivity | Bilayers, TNa/TK (ratio of the transference number for Na+ to that for K+) ([2]; compound 10^-6 M): < 0.I

C[C@@H]1C[C@H]2CC[C@H](O2)[C@H](C)C(=O)O[C@@H](C)C[C@@H]2CC[C@@H](O2)[C@@H](C)C(=O)O[C@H](C)C[C@H]2CC[C@H](O2)[C@H](C)C(=O)O[C@@H](C)C[C@@H]2CC[C@@H](O2)[C@@H](C)C(=O)O1 [Nonactin, nonactin]
selectivity for K+ over Na+ (section heading of Table II) [1]: high selectivity | Bilayers, TNa/TK (ratio of the transference number for Na+ to that for K+) ([2]; compound 10^-7 M): < 0.01

C=C1NC(=O)CC[C@@H](C(=O)O)NC(=O)[C@H](NC(=O)[C@H](CCCCN)NC(=O)[C@@H](N)Cc2c[nH]c3ccccc23)CSC[C@@H](C(=O)N[C@@H]2C(=O)N3CCC[C@H]3C(=O)NCC(=O)N[C@H](C(=O)N[C@H](C(=O)N[C@@H]3C(=O)NCC(=O)N[C@@H](C)C(=O)N[C@@H](CC(C)C)C(=O)N[C@@H](CCC(N)=O)C(=O)N/C(=C/C)C(=O)N[C@H](C(=O)N[C@@H](Cc4ccccc4)C(=O)N[C@@H](CC(C)C)C(=O)N[C@@H](CCC(N)=O)C(=O)N[C@@H]4C(=O)N[C@@H](CC(C)C)C(=O)N[C@H]5C(=O)N[C@@H](CSC4C)C(=O)NC(=O)[C@H](CC(N)=O)N[C@H](C(=O)N[C@@H](CCCCN)C(=O)N[C@H](C(=O)NC(=C)C(=O)N[C@@H](CCCCN)C(=O)O)[C@@H](C)CC)CSC5C)CSC3C)C(C)C)CSC2C)N[C@@H](CC(C)C)C(=O)NC1=O (some centres unmarked) [Subtilin]
activity on cation selectivity (section heading of Table II) ([1]; maximum conc. tested 10^-6 M): Inactive

CC(C)[C@@H]1NC(=O)[C@H](C)OC(=O)[C@@H](C(C)C)NC(=O)[C@@H](C(C)C)OC(=O)[C@H](C(C)C)NC(=O)[C@H](C)OC(=O)[C@@H](C(C)C)NC(=O)[C@@H](C(C)C)OC(=O)[C@H](C(C)C)NC(=O)[C@H](C)OC(=O)[C@@H](C(C)C)NC(=O)[C@@H](C(C)C)OC1=O [Valinomycin, valinomycin]
Partition coefficient between decane and NaCl (0.1 M), compared with KCl (0.1 M) ([3]; aqueous phase NaCl (0.1 M)): the same | Partition coefficient between decane and pure H2O, compared with KCl (0.1 M) ([3]; aqueous phase pure H2O): the same | solubility in water [4]: almost insoluble

Bacitracin A
activity on cation selectivity (section heading of Table II) ([1]; maximum conc. tested 10^-6 M): Inactive

Gramicidin A
selectivity for K+ over Na+ (section heading of Table II) [1]: moderate to low selectivity

Gramicidin B
selectivity for K+ over Na+ (section heading of Table II) [1]: moderate to low selectivity | Bilayers, TNa/TK (ratio of the transference number for Na+ to that for K+) ([2]; compound 10^-6 M): 0.4

Gramicidin C
selectivity for K+ over Na+ (section heading of Table II) [1]: moderate to low selectivity

Phalloidin
activity on cation selectivity (section heading of Table II) ([1]; maximum conc. tested 10^-4 M): Inactive

Polymixin B
activity on cation selectivity (section heading of Table II) ([1]; maximum conc. tested 10^-5 M): Inactive

Vernamycin
activity on cation selectivity (section heading of Table II) ([1]; maximum conc. tested 10^-5 M): Inactive

Viridogrisein
activity on cation selectivity (section heading of Table II) ([1]; maximum conc. tested 10^-6 M): Inactive
